The AUC is the area under the concentration-time curve, a measure of exposure. Broadly, the Tmax is the time at which the peak concentration occurs.

Data set [1] is described as follows: AUC (0 to 24 hrs) in human at 400 mg, po once daily after 14 days coadministered with rifampin at 600 mg, po once daily. The class given is ADME, organism-based. The arrangement: dose 400 mg, time < 24 hr, route oral. The following applies: plasma.
The nature of data set [2]: AUC (0 to 24 hrs) in human at 400 mg, po once daily after 4 days. Particulars: plasma. It is filed as ADME, organism-based. More on the design: dose 400 mg, time < 24 hr, route oral.
Data set [3] can be described thus: Plasma concentration in human at 400 mg, po once daily after 14 days coadministered with rifampin at 600 mg, po once daily. It is filed as ADME, organism-based.
A short description of data set [4]: Plasma concentration in human at 400 mg, po once daily after 4 days. The class given is ADME, organism-based.
The nature of data set [5]: Tmax in human at 400 mg, po once daily after 14 days coadministered with rifampin at 600 mg, po once daily. The class given is ADME, organism-based. Particulars: in vivo.
Data set [6] can be described thus: Tmax in human at 400 mg, po once daily after 4 days. The class given is ADME, organism-based. Particulars: in vivo.
Data set [7] in a line: AUC (0 to 24 hrs) in human with MDR1 3435 CC genotype at 400 mg, po once daily after 14 days coadministered with rifampin at 600 […], po once daily. More on the design: time < 24 hr, route oral. Particulars: plasma. It is filed as ADME, organism-based.
Data set [8] can be described thus: AUC (0 to 24 hrs) in human with MDR1 3435 CC genotype at 400 mg, po once daily after 4 days. The class given is ADME, organism-based. The arrangement: dose 400 mg, time < 24 hr, route oral. Particulars: plasma.
The nature of data set [9]: AUC (0 to 24 hrs) in human with MDR1 3435 CC or CT genotype at 400 mg, po once daily after 4 days. It is filed as ADME, organism-based. The arrangement: dose 400 mg, time < 24 hr, route oral. The following applies: plasma.
A short description of data set [10]: Plasma concentration in human with MDR1 3435 CC genotype at 400 mg, po once daily after 14 days coadministered with rifampin at 600 […], po once daily. The class given is ADME, organism-based. The arrangement: route oral.
Data set [11] can be described thus: Plasma concentration in human with MDR1 3435 CC or CT genotype at 400 mg, po once daily after 14 days coadministered with rifampin at 600 […], po once daily. The class given is ADME, organism-based. The arrangement: route oral.
Data set [12] is described as follows: Plasma concentration in human with MDR1 3435 CC genotype at 400 mg, po once daily after 4 days. It is filed as ADME, organism-based.
A short description of data set [13]: Plasma concentration in human with MDR1 3435 CC or CT genotype at 400 mg, po once daily after 4 days. It is filed as ADME, organism-based.
Data set [14] can be described thus: Tmax in human with MDR1 3435 CC genotype at 400 mg, po once daily after 14 days coadministered with rifampin at 600 […], po once daily. The class given is ADME, organism-based. The arrangement: route oral. Particulars: in vivo.
Data set [15] in a line: Tmax in human with MDR1 3435 CC or CT genotype at 400 mg, po once daily after 14 days coadministered with rifampin at 600 […], po once daily. It is filed as ADME, organism-based. The arrangement: route oral. Particulars: in vivo.
Data set [16] can be described thus: Tmax in human with MDR1 3435 CC genotype at 400 mg, po once daily after 4 days. The class given is ADME, organism-based. Particulars: in vivo.
A short description of data set [17]: Tmax in human with MDR1 3435 CC or CT genotype at 400 mg, po once daily after 4 days. The class given is ADME, organism-based. Particulars: in vivo.
Data set [18] in a line: AUC (0 to 24 hrs) in human with MDR1 3435 CT or TT genotype at 400 mg, po once daily after 14 days coadministered with rifampin at 600 mg, po once daily. The following applies: plasma.
Data set [19] is described as follows: AUC (0 to 24 hrs) in human at 600 mg, po once daily after 14 days coadministered with moxifloxacin at 400 mg, po once daily. Particulars: plasma. The arrangement: dose 600 mg, time < 24 hr, route oral. It is filed as ADME, organism-based.
The nature of data set [20]: Plasma concentration in human at 600 mg, po once daily after 14 days coadministered with moxifloxacin at 400 mg, po once daily. The class given is ADME, organism-based.

Turning to `COc1c(N2C[C@@H]3CCCN[C@@H]3C2)c(F)cc2c(=O)c(C(=O)O)cn(C3CC3)c12` [MOXIFLOXACIN], the AUC at 24 h in data set [1] came to 29200 ng·h/mL; in data set [2] it was 39400 ng·h/mL; in data set [7], 25500 ng·h/mL; in [8], 37200 ng·h/mL; in [9], 39700 ng·h/mL; in [18], 30300 ng·h/mL. Further, the figures for the concentration at 336 h in data set [3], in [10] and in data set [11] were 3600 ng/mL, 2940 ng/mL and 3830 ng/mL, respectively. For the same molecule, the concentration at 96 h in [4] amounted to 3800 ng/mL; in [12], 3530 ng/mL; in data set [13], 3810 ng/mL. Moreover, the time to peak (Tmax) worked out at 1.56 h in data set [5]; 1.97 h in [6]; 1.98 h in data set [14]; 1.05 h in data set [15]; 1.47 h in data set [16]; 1.91 h in [17].
Consider `CO[C@H]1/C=C/O[C@@]2(C)Oc3c(C)c(O)c4c(O)c(c(/C=N/N5CCN(C)CC5)c(O)c4c3C2=O)NC(=O)/C(C)=C\C=C\[C@H](C)[C@H](O)[C@@H](C)[C@@H](O)[C@@H](C)[C@H](OC(C)=O)[C@@H]1C` [RIFAMPIN], for which the AUC at 24 h in data set [19] was 44000 ng·h/mL. Further, the concentration at 336 h in [20] amounted to 9900 ng/mL.

(Values after ChEMBL document CHEMBL1155148 (Antimicrob Agents Chemother, 2007).)
